The source of these data is ChEMBL document CHEMBL6115028, “An Amazing 30-Year Journey around the DABO Family: A Medicinal Chemistry Lesson on a Versatile Class of Non-nucleoside HIV-1 Reverse Transcriptase Inhibitors” (J Med Chem, 2025).

The target of series [1] is T1, Human immunodeficiency virus type 1 reverse transcriptase (Human immunodeficiency virus 1, UniProt Q72547). Description: Inhibition of recombinant HIV-1 reverse transcriptase associated RNA-dependent DNA polymerase activity incubated for 30 mins by liquid scintillation method.
The test system of series [2] is MT4. Briefly: Cytotoxicity against human MT4 cells assessed as reduction in cell viability after 5 days by MTT assay. In kind it is functional. Particulars: MT4, 120 h, time 5 day.
Series [3] concerns Human immunodeficiency virus 1. Briefly: Antiviral activity against HIV-1 infected in human MT4 cells assessed as reduction in virus-induced cytopathic effect incubated for 5 days by Cell Titer-Glo luminescent assay. It is filed as functional, organism-based. Particulars: Human immunodeficiency virus 1, MT4, 120 h.
Series [4] in a line: Selectivity index, ratio of CC50 for human MT4 cells to EC50 for antiviral activity against HIV1 infected in human MT4 cells. To be noted: read-out: Ratio CC50/EC50. It is filed as toxicity, cell-based.
Series [5] deals with Human immunodeficiency virus 1. Briefly: Antiviral activity against wild type HIV-1 IIIB harboring Y181C/K103N double mutant infected in human MT4 cells assessed as reduction in cytopathic effect measured after 4 days by MTT assay. It is filed as functional, organism-based. Particulars: Human immunodeficiency virus 1, IIIB, MT4, 96 h.
Series [6] relates to Human immunodeficiency virus 1. Briefly: Antiviral activity against wild type HIV-1 IIIB infected in human MT4 cells assessed as reduction in cytopathic effect measured after 4 days by MTT assay. Particulars: Human immunodeficiency virus 1, IIIB, MT4, 96 h. It is filed as functional, organism-based.
The test system of series [7] is MT4. Description: Cytotoxicity against human MT4 cells assessed as reduction in cell viability incubated for 4 days by MTT assay. In kind it is functional. Particulars: MT4, 96 h, time 4 day.
Series [8] relates to Human immunodeficiency virus 1. Briefly: Antiviral activity against […] infected in human MT4 cells assessed as reduction in cytopathic effect measured after 4 days by MTT assay. In kind it is functional, organism-based. Particulars: Human immunodeficiency virus 1, IIIB, MT4, 96 h.
Series [9] deals with Human immunodeficiency virus 1. Briefly: Antiviral activity against HIV-1 NL4-3 harboring infected Y188L mutant infected in human MT4 cells assessed as reduction in viral replication. It is filed as functional, organism-based. To be noted: Human immunodeficiency virus 1, NL4-3, MT4.
The test system of series [10] is Human immunodeficiency virus 1. Briefly: Antiviral activity against HIV-1 NL4-3 harboring infected K103N mutant infected in human MT4 cells assessed as reduction in viral replication. It is filed as functional, organism-based. To be noted: Human immunodeficiency virus 1, NL4-3, MT4.
In series [11] the test system is Human immunodeficiency virus 1. Description: Antiviral activity against wild type HIV-1 NL4-3 infected in human MT4 cells assessed as reduction in viral replication measured for 72 hrs by ELISA analysis. In kind it is functional, organism-based. To be noted: Human immunodeficiency virus 1, NL4-3, MT4, 72 h.
In series [12] the test system is Human immunodeficiency virus 1. Briefly: Antiviral activity against HIV-1 NL4-3 harboring infected Y181C mutant infected in human MT4 cells assessed as reduction in viral replication. In kind it is functional, organism-based. Particulars: Human immunodeficiency virus 1, NL4-3, MT4.
For a further series, the system named is MT2. Briefly: Cytotoxicity against human MT2 cells. In kind it is functional.
Series [13] has as its system Human immunodeficiency virus 1. Description: Antiviral activity against HIV-1 3B infected in human MT4 cells assessed as reduction in viral replication incubated for 5 days by MTT assay. To be noted: Human immunodeficiency virus 1, 3B, MT4, 120 h. In kind it is functional, organism-based.
The subject of series [14] is MT4. Description: Cytotoxicity against human MT4 cells assessed as reduction in cell growth incubated for 5 days by MTT assay. In kind it is functional. Particulars: MT4, 120 h, time 5 day.
Series [15] relates to Human immunodeficiency virus 1. Description: Antiviral activity against HIV-1 harboring protease V82F mutant infected in human C8166 cells assessed as inhibition of viral replication measured for 72 hrs by spectrophotometric MTT assay. In kind it is functional, organism-based. Particulars: Human immunodeficiency virus 1, C8166, 72 h.
Series [16] in a line: Cytotoxicity against African green monkey Vero cells assessed as reduction in cell viability incubated for 72 hrs by MTT assay. In kind it is toxicity, cell-based. Particulars: chlorocebus sabaeus.
Series [17] deals with Human immunodeficiency virus 1. Briefly: Antiviral activity against HIV-1 infected in human MT4 cells. It is filed as functional, organism-based. Particulars: Human immunodeficiency virus 1, MT4.
For series [18], the system named is MT4. Briefly: Cytotoxicity against human MT4 cells. It is filed as functional.
The subject of series [19] is Human immunodeficiency virus 1. Description: Antiviral activity against wild type HIV-1 NL4-3 infected in human MT4 cells assessed as reduction in viral replication. In kind it is functional, organism-based. Particulars: Human immunodeficiency virus 1, NL4-3, MT4; read-out: EC50.
Series [20] concerns the target T2, Reverse transcriptase (Human immunodeficiency virus 1, UniProt Q9WKE8, K103N). Briefly: Inhibition of HIV-1 Reverse transcriptase K103N mutant.
Series [21] has as its system Human immunodeficiency virus 1. Briefly: Antiviral activity against wild type HIV-1 IIIB infected in human MT4 cells assessed as protection against virus-induced cytopathic effect incubated for 72 hrs by MTT assay. It is filed as functional, organism-based. To be noted: Human immunodeficiency virus 1, IIIB, MT4, 72 h.
The target in series [22] is T1, Human immunodeficiency virus type 1 reverse transcriptase. Briefly: Inhibition of wild type HIV-1 Reverse transcriptase.
For series [23], the target named is T2, Reverse transcriptase. Description: Binding affinity to HIV-1 reverse transcriptase K103N mutant assessed as inhibition constant.

Where only a bound is given, the exact number is not on record here.

Consider `CCC(C)Oc1nc(Sc2ccccc2)nc(N)c1C` (stereo unspecified), for which the IC50 in series [1] was 28000 nM. Also, the CC50 in the series with MT4 [2] was > 364 µM. Moreover, in [3], the concentration giving a half-maximal response (EC50) amounted to 8000 nM. Further, in series [4], the selectivity ratio is > 45.

Take `C=C(c1nc(N(C)C)[nH]c(=O)c1C)c1c(F)cccc1F`: the half-maximal effective concentration (EC50) in series [5] is > 100 µM; in [6], 200 nM; in series [8] it was 44 µM. In addition, the half-maximal cytotoxic concentration (CC50) with MT4 [7] was > 100 µM.

Regarding `CSc1nc(N)c(C)c(C(=O)c2ccc(F)cc2)n1`, the EC50 in series [9] worked out at 210 nM; in series [10] it was 5.95 µM; in series [11], 580 nM; in series [12], 210 nM.

In the series on MT2, `CSc1nc(C(C)C)c(CC2CCCCC2)n1COCc1ccccc1` showed a CC50 of 31 µM.

Take `Cc1c(C(Br)c2c(F)cccc2F)nc(N(C)C)[nH]c1=O` (stereo unspecified): the EC50 amounted to 43 µM in [5], 200 nM in series [6] and 43 µM in series [8]. Moreover, in the series with MT4 [7], the half-maximal cytotoxic concentration (CC50) is 43 µM.

Regarding `CCC(C)Sc1nc(Cc2cc(C)cc(C)c2)c(C)c(=O)[nH]1` (stereo unspecified), the 50% effective concentration (EC50) in [13] is 600 nM. Moreover, the CC50 in the series on MT4 [14] is 86 µM.

With `CSCSc1nc(Cc2c(F)cccc2F)cc(=O)[nH]1`, the EC50 in [15] worked out at 800 nM. Further, the CC50 at 72 h in series [16] is > 200 µM.

For `Cc1c(C2(c3c(F)cccc3F)CC2)nc(SC2CCCC2)[nH]c1=O`, the EC50 in series [17] is 5 nM. Moreover, the 50% cytotoxic concentration (CC50) in the series on MT4 [18] was found to be 14 µM. Moreover, in series [4], the selectivity ratio was 2660.

For `CCc1nc(SC)n(COCc2ccccc2)c1CC1CCCCC1`, half-maximal cytotoxicity in the series with MT2 (CC50) was put at 25 µM.

For `CCC(C)Sc1nc(Cc2cc(C)cc(C)c2)c(I)c(=O)[nH]1` (stereo unspecified), in series [13], the concentration for a half-maximal effect (EC50) was 4300 nM. Also, in the series on MT4 [14], the CC50 was determined as 144 µM.

For the compound `CCC(C)Oc1nc(Cc2cc(C)cc(C)c2)c(C)c(=O)[nH]1` (stereo unspecified), the IC50 in series [1] came to 2000 nM. Besides, in the series with MT4 [2], the CC50 is > 333 µM. Further, the concentration giving a half-maximal response (EC50) in series [3] was found to be 800 nM. Moreover, the selectivity ratio in [4] was > 416.

Take `Cc1c(C(F)c2c(F)cccc2F)nc(N(C)C)[nH]c1=O` (stereo unspecified): the values for the EC50 in [5], in series [6] and in series [8] were > 100 µM, 20 nM and 2.8 µM, respectively. For the same compound, the half-maximal cytotoxic concentration (CC50) in the series with MT4 [7] is > 100 µM.

`CCOCn1c(SC)nc(C(C)C)c1CC1CCCCC1` returned a CC50 in the series on MT2 of 39 µM.

The compound `CSc1nc(C(C)C)c(Cc2ccccc2)n1COCc1ccccc1` showed a CC50 with MT2 of 29 µM.

With `COc1ccc(C2CC2CN(C)c2nc(C(C)c3c(F)cccc3F)cc(=O)[nH]2)cc1` (stereo unspecified), the half-maximal effective concentration (EC50) in series [9] was 2950 nM; in series [10], 0.07 µM; in series [12], > 5000 nM; in series [19], 3 nM. This compound also had a 50% inhibitory concentration (IC50) at Reverse transcriptase [20] of 985 nM.

With `Cc1cc(C)cc(Cc2nc(Sc3cccc4ccccc34)[nH]c(=O)c2C)c1`, in series [21], the EC50 was 1600 nM. The CC50 in the series with MT4 [18] is > 100 µM.

Regarding `Cc1cccc(Cc2cc(=O)[nH]c(OC3CCCCC3)n2)c1`, the 50% inhibitory concentration (IC50) in [1] was found to be 1800 nM. Moreover, the CC50 in the series with MT4 [2] is > 335 µM. For the same compound, the concentration for a half-maximal effect (EC50) in series [3] was 800 nM. For the same compound, the selectivity ratio in series [4] is > 418.

Regarding `CCCSc1nc(C2(c3c(F)cccc3F)CC2)c(C)c(=O)[nH]1`, a half-maximal effect in series [17] (EC50) was put at 4 nM. For the same compound, half-maximal cytotoxicity with MT4 [18] (CC50) was put at 12 µM. For the same compound, the selectivity ratio in [4] came out at 3000.

Regarding `COc1ccc(Cn2cc(CSc3nc(Cc4c(Cl)cccc4Cl)c(C)c(=O)[nH]3)nn2)cc1`, the 50% inhibitory concentration (IC50) in series [22] worked out at 4.56 µM. Also, in the series on MT4 [18], the cytotoxic concentration (CC50) was 29 µM.

Take `CC(c1cc(=O)[nH]c(N(C)C)n1)c1c(F)cccc1Cl` (stereo unspecified): the Ki on Reverse transcriptase [23] came out at 1000 nM. In addition, the concentration giving a half-maximal response (EC50) in series [11] worked out at 7 nM.

Consider `Cc1c(C(O)c2c(F)cccc2F)nc(N(C)C)[nH]c1=O` (stereo unspecified), for which the concentration giving a half-maximal response (EC50) was > 50 µM in [5], 1000 nM in series [6] and > 50 µM in [8]. Besides, the half-maximal cytotoxic concentration (CC50) in the series on MT4 [7] came out at 50 µM.

As to `Cc1c(C(=O)c2c(F)cccc2F)nc(N(C)C)[nH]c1=O`, the EC50 in [5] was > 100 µM; in series [6], 300 nM; in [8], 94 µM. Further, the CC50 in the series with MT4 [7] was > 100 µM.

In the case of `Cc1c(C(C)c2c(F)cccc2F)nc(N(C)C)[nH]c1=O` (racemic), the EC50 in series [5] turned out to be 0.9 µM; in series [8], 0.7 µM. For the same compound, the CC50 in the series on MT4 [7] is > 100 µM.
